Experimental data taken from PubChem BioAssay AID489027 (Sanford-Burnham Center for Chemical Genomics, 2010).
Activity calls are given as the source filed them. The rule behind the calls is not given here.

target: UPR counterscreen luciferase reporter, luminescence; test: luciferase reporter activation, UPR counterscreen line – cell-based, luminescence, counter-screen for adaptive UPR activator project, dose response (AID 489027)

Row | Structure (SMILES) | EC50
1 | O=C(/C=C1\NC2(CCCC2)Cc2ccccc21)C(=O)N/N=C/c1ccc(O)c(O)c1 | 10.4 µM
2 | Cc1cc(NC(=O)CSc2ccc(-c3nc4cc(C)c(C)cc4[nH]3)cn2)no1 | inactive
3 | COc1ccc(N2CCN(Cc3cc(=O)oc4cc(-c5ccccc5)c(O)cc34)CC2)cc1 | > 80 µM (inactive)
4 | CCOC(=O)c1nnc(-c2ccccc2)nc1Oc1ccc(Cl)cc1 | 19.6 µM
5 | Cc1ccc(F)cc1N=Cc1c(O)c2ccccc2oc1=O | 9.06 µM
6 | Cc1ccc(CNC(=O)c2ccc3c(=O)n4c(-c5ccc(C)cc5)csc4nc3c2)cc1 | > 80 µM (inactive)
7 | COc1ccccc1-c1cc(-c2ccccc2)nc(SC(C(N)=O)c2ccccc2)c1C#N (stereo unspecified) | > 80 µM (inactive)
8 | COc1ccccc1Nc1nnc(SCC(=O)NC(=O)Nc2ccc3c(c2)OCCO3)s1 | > 80 µM (inactive)
9 | Cc1ccc(NC(=O)COc2ccc(/C=C3/SC(=Nc4ccccc4)N(Cc4cccnc4)C3=O)cc2)cc1 | 19.6 µM
10 | CCCC[C@@H](C)C[C@@H](C)C(=O)N(C)[C@@H](CC(C)C)C(=O)N[C@H](C(=O)N(C)[C@H](C(=O)N1C[C@@H](O)C[C@H]1C(=O)N1C(=O)C=C[C@@H]1C)C(C)C)C(C)OC(C)=O (stereo partly specified) | 7.75 µM
11 | O=C(Nc1ccc(C(F)(F)F)cc1)c1cc(-c2cccnc2)nc2ccc(Br)cc12 | 11.5 µM
12 | Cc1nc2cc(NC(=O)CSc3nc4c(C)cccc4cc3C#N)ccc2s1 | > 80 µM (inactive)
13 | CN(C)CCCN(C(=O)c1cc(-c2cccs2)nc2ccccc12)c1nc2ccc(F)cc2s1 | 15.9 µM
14 | CC(NCC(O)COCCC12CC3CC(CC(C3)C1)C2)c1ccccc1 (stereo unspecified) | > 80 µM (inactive)
15 | OC(CNCC1CCCO1)Cn1c2ccc(Br)cc2c2cc(Br)ccc21 (stereo unspecified) | > 80 µM (inactive)
16 | COc1cc(-c2ccc3oc(-c4ccsc4)cc3c2)cc(OC)c1OC | > 80 µM (inactive)
17 | O=C(Nc1ccc([N+](=O)[O-])cc1)C(Cc1ccccc1)N1C(=O)c2cccc3cccc(c23)C1=O (stereo unspecified) | inactive
18 | COc1ccc(NC(=O)c2cc3c(=O)n(C)c4ccccc4c3n2C)cc1Cl | > 80 µM (inactive)

Next, values leading:

Row | EC50 | Structure (SMILES)
19 | > 80 µM (inactive) | CCOc1ccc(NC(=S)NC(=O)/C=C/c2ccc(C)cc2)c([N+](=O)[O-])c1
20 | > 80 µM (inactive) | O=c1cc(C(Cl)(Cl)Cl)oc2c1ccc1ccccc12
21 | > 80 µM (inactive) | O=C(/C=C/c1cc([N+](=O)[O-])ccc1OC(F)F)Nc1cccc([N+](=O)[O-])c1
22 | 11 µM | O=C(/C=C/c1ccco1)NC(=S)Nc1ccc(O)c(-c2nc3ccccc3s2)c1
23 | 15.2 µM | O=C(N/N=C/c1ccc(O)c(O)c1)c1ccc(CSc2cccc3cccnc23)cc1
24 | inactive | O=C(Nc1ccc(Cl)cc1)Nc1ccccc1Sc1ncc([N+](=O)[O-])s1
25 | inactive | Oc1cc(-c2cccnc2)cc2cccnc12
26 | 16.4 µM | O=C(c1ccc2c(c1)[nH]c(=S)n1c3ccccc3nc21)N1CCN(c2cccc(Cl)c2)CC1
27 | inactive | CC1(C)CC[C@@]23CC[C@]4(C)[C@@](OC2=O)(C3C1)[C@H]1O[C@H]1C1[C@@]2(C)CC[C@H](O)C(C)(C)C2CC[C@]14C (stereo partly specified)
28 | 9 µM | CCCCCCCCCn1c2c(c(=N)c3c1CCC3)CCCC2
29 | 8.45 µM | CC1=C(/C=C/C(C)=C/C=C/C(C)=C/C(=O)Nc2ccc(O)cc2)C(C)(C)CCC1
30 | inactive | c1ccc(Oc2c3ccccc3nc3ccccc23)cc1
31 | inactive | CC1CCN(Cc2c(C(=O)N/N=C/c3ccc(C(C)C)cc3)nnn2-c2nonc2N)CC1
32 | > 80 µM (inactive) | Cc1cc(C)c2c(n1)sc1c(-c3ccccc3)c(C#N)c(N)nc12
33 | > 80 µM (inactive) | COc1cc(/C=C2/C(=N)N3C=CSC3=NC2=O)ccc1OCCCOc1cc(C)ccc1C
34 | 8.25 µM | COc1ccc(C2c3ccc4ccccc4c3Oc3ncn(CCCN(C)C)c(=N)c32)cc1 (stereo unspecified)
35 | 11.9 µM | Cc1ccc(C(=O)C(C(=O)/C=C/c2ccccc2)=C2SCCCS2)cc1
36 | > 80 µM (inactive) | CCc1ccc(-c2nc(CN3CCC(C(=O)NCCN(CC)c4ccccc4)CC3)c(C)o2)cc1
